Consider one substance from patent publication US20150174202A1, “Methods and Compositions for Modulating Beta Cell Proliferation” (The Board of Trustees of the Leland Stanford Junior …, priority 2011, published 2015).

Assay type in all cases: cell-based
One experiment deals with mouse islet β-cells. Briefly: In vitro mouse islet β-cell proliferation (BrdU incorporation). The conditions noted are these: juvenile (3 week-old) mouse islets, PDGF-AA 50 ng/ml, 2 days. The procedure:
Mouse pancreatic islets were purified as described in Chen et al. (2009) Genes Dev. 23, 975-985 and used immediately for assays described in the text. To study Ezh2 induction in cultured islets exposed to mitogens, freshly isolated islets from 2-3-week old, and 7-12-month old C57BL/6 mice were recovered and equilibrated overnight at 37° C., 5% CO2 in RPMI-1640 medium supplemented with 0.5% fetal bovine serum (FBS), 0.2% bovine albumin (BSA) and 2% penicillin/streptomycin. Afterwards, islets were distributed into microplates or dishes, and treated with recombinant human PDGF-AA, prolactin or insulin (Sigma), with or without addition of pharmacological inhibitors, including Sunitinib (Selleck), […]0126 (Sigma), LY294002 (Sigma) or U-73122 (Sigma) at the indicated concentrations. Two days later, islets were harvested for RNA or protein extraction for real-time RTPCR or western blot analyses. To detect phosphorylation of Pdgfr-α by western blot, islets were exposed to PDGF-AA (with or without indicated pharmacological inhibitors) for 90 min before islet harvesting and protein extraction. To detect in vitro islet β-cell proliferation stimulated by PDGF-AA, a final concentration of 50 μM BrdU was introduced into each culture dish 24 h before harvest, followed by standard histological processing. Immunostaining of BrdU and insulin was performed on processed islets, and β-cell proliferation rate was determined by quantifying percentage of insulin+ cells with BrdU+. […] For measuring pancreatic β-cell mass or BrdU by morphometry, three to six mice for each group were analysed. At least five sections separated by more than 300 μm (pancreases) or 50 μm (cultured islets) were immunostained and assessed for each sample. Images were analysed with an ImagePro program by observers blinded to genotype, and pancreatic β-cell mass and percentage of BrdU+β-cells were calculated as described in Chen et al. Polycomb protein Ezh2 regulates pancreatic 6-cell Ink4a/Arf expression and regeneration in diabetes mellitus. […]
On the technique in general: Dividing cells build labelled thymidine or BrdU into new DNA.

A further experiment has as its system human islet β-cells. Briefly: In vitro human islet β-cell proliferation (BrdU incorporation). The conditions noted are these: PDGF-AA 50 ng/ml, 2 days. From the text: For islet studies, human islets were isolated either at Pittsburgh University Medical Center or the University of Alabama, Birmingham. Eight independent human islet preparations from juvenile donors at the age of 8 months, 1.0, 1.5, 2, 3, 4, 5 and 6 years, and three adult islet preparations from donors at the age of 39, 48 and 56 years were used in this study. After isolation, fresh islets were hand-picked and transferred to RPMI-1640 medium supplemented with 0.5% FBS, 0.2% BSA and 2% penicillin/streptomycin for an overnight recovery before experiments. […] To detect in vitro human islet β-cell proliferation stimulated by PDGF-AA, human islets were exposed to 50 μM BrdU for 24 h. Afterwards, human islets were processed in a similar way as in mouse islet studies for immunostaining of insulin, glucagon, PDX1 and BrdU. β-Cell proliferation rate was determined by quantifying percentage of insulin+ cells with BrdU+. More than 50 islets per group were counted for determining cultured human islet β-cell proliferation rate.

The subject of another experiment is human EZH2 locus. The experiment is described as follows: EZH2 locus ChIP analysis with anti-E2F1 antibody in human juvenile islets. The conditions noted are these: juvenile human islets exposed to PDGF-AA. As to the method: ChIPs were performed using a chromatin immunoprecipitation kit from Millipore. Briefly, freshly isolated mouse pancreatic islets or cultured human islets after the indicated treatments were pooled, and fixed with 2% formaldehyde for cross-linking for 20 min at room temperature (25° C.). After washing, islets were dissolved in SDS lysis buffer containing a proteinase inhibitor cocktail followed by sonication to shear the chromatin. Precleared chromatin from 150 to 300 islets was used for each ChIP sample with incubation of 1 to 5 μg of the appropriate antibodies at 4° C. overnight. The antibodies used in the ChIP assays included mouse anti-E2F1 (Millipore), rabbit anti-E2F4 (Santa Cruz Biotechnologies), rabbit or mouse polyclonal IgG (Millipore). […] After measurement of DNA concentration by PicoGreen DNA assay (Invitrogen), equivalent amounts of chromatin DNA from every sample was quantified by real-time qPCR in ABI Prism 7300 detection system (Applied Biosystems). […] Afterwards, human islets were processed in a similar way as in mouse islet studies for immunostaining of insulin, glucagon, PDX1 and BrdU. β-Cell proliferation rate was determined by quantifying percentage of insulin+ cells with BrdU+. More than 50 islets per group were counted for determining cultured human islet β-cell proliferation rate.

Entries after “also recorded” stand apart in the source; their conditions may differ.

With “PDGF-AA: recombinant human PDGF-AA, a homodimer of PDGF alpha polypeptides”, in the experiment on mouse islet β-cells, the “β-cell proliferation assessed by BrdU incorporation” value was “increased β-cell proliferation in juvenile islets; also recorded: induces”. In the experiment on human islet β-cells (adult human islets), the β-cell proliferation result is listed as “did not alter”. Moreover, in the experiment on human islet β-cells (juvenile human islets), the “β-cell BrdU incorporation compared to vehicle-exposed controls” value is recorded as “sixfold increase”. Besides, in the experiment on human islet β-cells (juvenile human islets, confocal microscopy), the “identity of proliferating BrdU+ cells stimulated by PDGF-AA” value is recorded as “predominantly β-cells; also recorded: majority of PDGF-AA stimulated proliferating islet cells were PDX1+cells”. In addition, the “association of E2F1 with the human EZH2 locus (ChIP)” value in the experiment on human EZH2 locus is “stimulated association of E2F1”.
